Measured values as given in US20040106626A1, “6-Membered unsaturated heterocyclic compounds useful for selective inhibition of the coagulation cascade” (Pharmacia Corporation, priority 2001, published 2004).
Where two headings read alike, the source gives them in different places.

Tests used:
Format in all cases: biochemical
Human factor Xa = molecular target: T1, Human factor Xa (Homo sapiens, UniProt P00742); assay: Xa assay (chromogenic substrate S-2765); settings: reported only as less than or greater than 30 uM; read-out: Factor Xa (II) IC50
T1 construct: purchased Enzyme Research Laboratories, South Bend Ind
Method in brief: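 Human factor Xa (0.3 nM) was incubated with inhibitor and 0.15 mM S-2765 in 50 mM Tris-HCl pH 8.0, 100 mM NaCl, 0.1% BSA. After 60 min at RT, p-nitroaniline release was read at 405 nm after background subtraction. Percent inhibition was calculated against uninhibited control.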

Human thrombin = molecular target: T2, Human thrombin (Homo sapiens, UniProt P00734); assay: Thrombin assay (chromogenic substrate)
T2 construct: converts prothrombin (II) to thrombin (IIa); purchased Calbiochem, La Jolla, Calif
Method in brief: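 Chromogenic assay with p-nitroaniline-releasing substrate; thrombin activity read as OD405 nm. Percent inhibition calculated from experimental versus control absorbance.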

[1] = tested on: Normal human pooled plasma; assay: Prothrombin time (PT) clotting assay; settings: concentration at which prothrombin time is prolonged by 2x normal, reported as less than or greater than 50 uM
Method in brief: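 Normal human pooled plasma incubated with 100 uM compound or saline, then thromboplastin (human tissue factor) added and clotting time recorded in a coagulation machine. Compounds exceeding 3× normal PT (11.0 s) are titrated to find the concentration doubling PT.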

[2] = molecular target: T3, recombinant soluble tissue factor and recombinant human factor VIIa (TF-VIIa) (Homo sapiens, UniProt P08709); assay: TF-VIIa assay (chromogenic substrate hydrolysis); settings: reported only as less than or greater than 0.1 uM
T3 construct: conversion of coagulation factor VII to VIIa by factor Xa; purchased American Diagnostica, Greenwich CT; host or cells: soluble TF made in house in E. coli
Method in brief: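 100 nM soluble tissue factor and 2 nM recombinant human factor VIIa added to 0.4 mM N-methylsulfonyl-D-phe-gly-arg-p-nitroaniline with inhibitor in 50 mM Tris-HCl pH 8.0, 5 mM CaCl2, 100 mM NaCl, 0.1% BSA. Percent inhibition from OD405 versus control.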

[3] = reported only as less than or greater than 30 uM, read-out: Thrombin (II) IC50

T3 sequence (P08709 213-466 limits assumed): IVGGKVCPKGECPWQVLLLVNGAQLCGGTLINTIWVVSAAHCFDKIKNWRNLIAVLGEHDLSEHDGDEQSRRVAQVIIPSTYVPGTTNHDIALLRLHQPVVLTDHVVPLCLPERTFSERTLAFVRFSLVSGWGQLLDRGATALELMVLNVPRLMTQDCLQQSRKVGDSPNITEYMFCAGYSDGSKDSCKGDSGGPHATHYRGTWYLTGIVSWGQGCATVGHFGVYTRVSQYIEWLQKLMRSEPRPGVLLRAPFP
T3 sequence (P08709 61-212 limits assumed): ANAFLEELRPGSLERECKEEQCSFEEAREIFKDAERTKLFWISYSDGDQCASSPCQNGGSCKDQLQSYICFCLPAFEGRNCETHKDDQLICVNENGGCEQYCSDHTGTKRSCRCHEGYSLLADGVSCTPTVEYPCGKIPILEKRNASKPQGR
T3 sequence (P13726 33-251 partner limits assumed): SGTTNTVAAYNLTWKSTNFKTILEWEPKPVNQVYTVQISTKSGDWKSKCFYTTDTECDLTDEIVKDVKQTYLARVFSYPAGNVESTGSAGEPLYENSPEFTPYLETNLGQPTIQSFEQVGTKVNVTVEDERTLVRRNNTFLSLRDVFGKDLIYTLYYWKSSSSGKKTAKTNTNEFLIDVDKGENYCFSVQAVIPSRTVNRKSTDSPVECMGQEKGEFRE
T1 sequence (P00742 235-488 limits assumed): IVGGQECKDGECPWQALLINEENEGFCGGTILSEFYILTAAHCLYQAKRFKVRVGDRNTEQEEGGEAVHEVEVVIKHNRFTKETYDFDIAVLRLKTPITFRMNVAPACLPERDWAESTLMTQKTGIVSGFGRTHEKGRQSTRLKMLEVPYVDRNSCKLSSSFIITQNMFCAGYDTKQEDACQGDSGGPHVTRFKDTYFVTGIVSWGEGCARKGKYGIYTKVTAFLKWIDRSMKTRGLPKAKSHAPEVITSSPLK
T1 sequence (P00742 41-179 limits assumed): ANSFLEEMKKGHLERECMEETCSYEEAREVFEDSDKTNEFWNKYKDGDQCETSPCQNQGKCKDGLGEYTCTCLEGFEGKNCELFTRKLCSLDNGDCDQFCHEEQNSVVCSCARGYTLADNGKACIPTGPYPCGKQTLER

Question: Which results are given for `CC(C)Nc1ncc(-c2cc(N)cc(S(=O)(=O)C3CCCC3)c2)n(CC(=O)NCc2ccc(C(=N)N)cc2)c1=O.O=C(O)C(F)(F)F.O=C(O)C(F)(F)F` [Example 235]?
Answer: IC50 (Human factor Xa): > 30 µM; IC50 (Human thrombin; [3]): > 30 µM; PT (Prothrombin time) 2xPT [1]: <50.0 µM; IC50 [2]: < 0.1 µM

Question: `CCC(C)CS(=O)(=O)c1cc(N)cc(-c2cnc(NC(C)C)c(=O)n2CC(=O)NCc2ccc(C(=N)N)cc2)c1.O=C(O)C(F)(F)F.O=C(O)C(F)(F)F` (centres unmarked) [Example 237] was tested. Which IC50 (Human factor Xa) did it give?
Answer: > 30 µM

Question: What about the IC50 (Human thrombin; [3]) of the same compound?
Answer: > 30 µM

Question: What about the “PT (Prothrombin time) 2xPT” value [1] of the same compound?
Answer: <50.0 µM

Question: What about the IC50 [2] of the same compound?
Answer: < 0.1 µM

Question: `CC(C)Nc1ncc(-c2cc(N)cc(OC(=O)C3CC3)c2)n(CC(=O)NCc2ccc(C(=N)N)cc2)c1=O.O=C(O)C(F)(F)F.O=C(O)C(F)(F)F` [Example 238] was tested. Which IC50 (Human factor Xa) did it give?
Answer: > 30 µM

Question: And the IC50 (Human thrombin; [3])?
Answer: > 30 µM

Question: And the “PT (Prothrombin time) 2xPT” value [1]?
Answer: <50.0 µM

Question: And the IC50 [2]?
Answer: < 0.1 µM

Question: `CC(C)Nc1ncc(-c2cc(N)cc(OC(=O)NCc3ccccc3)c2)n(CC(=O)NCc2ccc(C(=N)N)cc2)c1=O.O=C(O)C(F)(F)F.O=C(O)C(F)(F)F` [Example 239] was tested. Which IC50 (Human factor Xa) did it give?
Answer: > 30 µM

Question: And the IC50 (Human thrombin; Thrombin (II) IC50, reported only as less than or greater than 30 uM)?
Answer: > 30 µM

Question: What about the “PT (Prothrombin time) 2xPT” value [1] of the same compound?
Answer: <50.0 µM

Question: What about the IC50 [2] of the same compound?
Answer: < 0.1 µM

Question: What does the source list for `CC[C@@H](C)NC(=O)c1cc(N)cc(-c2cnc(NC(C)C)c(=O)n2CC(=O)NCc2ccc(C(=N)N)cc2O)c1.O=C(O)C(F)(F)F` [Example 240]?
Answer: IC50 (Human factor Xa): > 30 µM; IC50 (Human thrombin; [3]): > 30 µM; PT (Prothrombin time) 2xPT [1]: <50.0 µM; IC50 [2]: < 0.1 µM
